Results published in patent US10568898B2, “Lipophilic nanoparticles for drug delivery” (priority 2013, dated 2020).

Assays:
Ramos cells = type: cell-based; conditions: FIG. 7, free doxorubicin at 100 nM-1 μM, HDL-Andrographolide NP at 5 nM
Description: For suspension cell lines (Ramos, Jurkat, and SUDHL4), confluent cells were deposited onto 96-well plates at 1×10^5 cells/mL, then treated with either: 1-10 nM HDL NP, 1-10 nM HDL-drug NP, 10 nM-1 μM free drug, or 10 nM human HDL. All solutions were in 1% PBS, in a total volume of 100 μL. Cells were incubated for 48 hours with the treatment, then assessed for viability using a 3-(4,5-dimethylthiazol-2-yl)-5-(3-carboxymethoxyphenyl)-2-(4-sulfo-phenyl)-2H-tetrazolium (MTS) cell proliferation assay. 20 μL of the MTS solution (G1112; Promega) was added to each well; absorbance at 490 nm was measured immediately and after 90 min. Survival for a sample was presented as absorbance for that sample at 90 min, compared to absorbance for the non-treated control at 90 min. Since metabolically active cells reduce MTS, lower absorbance indicates cell death.
Cytotoxicity of the HDL-Doxorobucin NPs was assessed by incubating with lymphoma cells in culture for 48-72 hours, and measuring cell viability by a 3-(4,5-dimethylthiazol-2-yl)-5-(3-carboxymethoxyphenyl)-2-(4-sulfophenyl)-2H-tetrazolium (MTS) assay. […]
For suspension cell lines (Ramos and SUDHL4), 90 μl confluent cells were deposited into 96-well plates at 1×10^5 cells/mL, then treated with 10 μl of either: 1-10 nM HDL NP, 1-10 nM HDL-drug NP, 10 nM-1 μM free drug, 10 nM human HDL, or PBS. […] Cells were incubated for 48 hours with the treatment, and then assessed for viability using a 3-(4,5-dimethylthiazol-2-yl)-5-(3-carboxymethoxyphenyl)-2-(4-sulfo-phenyl)-2H-tetrazolium (MTS) cell proliferation assay. Twenty μL of the MTS solution (G1112; Promega) was added to each well; absorbance at 490 nm was measured immediately and after 90 minutes. […] Cell viability was calculated according to the following formula: Cell viability=(OD490, 90 min(sample)−OD490, 90 min(0% survival control))/(OD490, 90 min(100% survival control)−OD490, 90 min(0% survival control))×100%
Cytotoxicity of the Dox-HDL-NPs was assessed by incubating Dox-HDL-NP, HDL-NP, or free doxorubicin at varying doses with different lymphoma cell lines. […]

[1] = clinical use; cited from earlier work
[2] = tested on: LNCaP adenocarcinoma cell lines; assay: Fluorescence microscopy of doxorubicin uptake; type: cell-based, human; conditions: 18 hours after treatment
Description: To further confirm delivery of doxorubicin to cancer cells with HDL-NP, LNCaP adenocarcinoma cell lines were assessed by fluorescence microscopy after treatment with free doxorubicin, Dox-HDL-NP, and HDL-NP.

H9c2 cells = conditions: 48- and 72-hour treatment, same concentrations as lymphoma lines
Description: For adherent lines (LNCaP, MDA-MB-231, and H9c2), cells were deposited onto 96-well plates at a concentration of 5×10^4 cells/mL, 24 hours prior to treatment. Cells were then treated, incubated, and assessed as described above for the suspension cells.
The effects of Dox-HDL-NP and free doxorubicin in H9c2 cardiomyoblasts, a rat-derived cardiomyocyte cell line that has been used extensively in mechanistic studies of doxorubicin toxicity in heart cells, have been studied.

Row | Structure (SMILES) | killing effect (Ramos cells) | cumulative dose above which cardiotoxicity typically occurs [1] | doxorubicin fluorescence in cells [2] | cell viability in cardiomyoblasts (H9c2 cells)
1 | C=C1CC[C@@H]2[C@](C)(CO)[C@H](O)CC[C@@]2(C)[C@@H]1C/C=C1/C(=O)OC[C@H]1O [Andrographolide] | slight protective effect on cells |  |  | 
2 | CC[C@]1(O)C[C@H]2CN(CCc3c([nH]c4ccccc34)[C@@](C(=O)OC)(c3cc4c(cc3OC)N(C=O)[C@H]3[C@@](O)(C(=O)OC)[C@H](OC(C)=O)[C@]5(CC)C=CCN6CC[C@]43[C@@H]65)C2)C1 [Vincristine] | kills with comparable efficiency to the bare HDL NP |  |  | 
3 | COc1cccc2c1C(=O)c1c(O)c3c(c(O)c1C2=O)C[C@@](O)(C(=O)CO)C[C@@H]3O[C@H]1C[C@H](N)[C@H](O)[C@H](C)O1 [doxorubicin] | substantial killing effect | exceeds 450 mg/m^2 of body surface area | fluorescence was clearly seen | significant reduction in viability
